{
  "source": "patent US9562899B2",
  "about": "“Method of detecting OXA-048 carbapenemase producing bacteria” (BIOMÉRIEUX, priority 2012, dated 2017)",
  "key": {"BLSE strains": {"system": "BLSE strains", "assay": "Temocillin MIC with EDTA in the medium (Example 2)", "assay_type": "cell-based, Enterobacteriaceae", "conditions": "Ex 2, MIC in mg/l", "source_text": "(§1) Optimization of the Detection Specificity by Introducing Specific Inhibitors Inhibition of Class B Strains (NDM, VIM, IMP) by Adding EDTA\n(§2) Identical to that used to determine the temocillin MICs by agar dilution (example 1).\n(§3) For each temocillin concentration, the following concentrations of active EDTA will be tested in the form of disodium EDTA: 0, 1.77, 2.12, 2.47 and 2.83 mmol/l.\n(§4) Method: identical to the method used in example 1."}, "AmpC strains": {"system": "AmpC strains", "assay": "Temocillin MIC with EDTA in the medium (Example 2)", "assay_type": "cell-based, Enterobacteriaceae", "conditions": "Ex 2, MIC in mg/l", "source_text": "as §1, §2, §3, §4"}},
  "data": [
    {"smiles": "CO[C@@]1(NC(=O)C(C(=O)O)c2ccsc2)C(=O)N2[C@@H](C(=O)O)C(C)(C)S[C@@H]21", "note": "(some centres unmarked) [temocillin]", "values": [
      {"measurement": "No. of BLSE strains with MIC 150", "setting": "BLSE strains; 0 mmol/l of EDTA", "result": 0},
      {"measurement": "No. of BLSE strains with MIC 200", "setting": "BLSE strains; 0 mmol/l of EDTA", "result": 0},
      {"measurement": "No. of BLSE strains with MIC 300", "setting": "BLSE strains; 0 mmol/l of EDTA", "result": 0},
      {"measurement": "No. of BLSE strains with MIC >300", "setting": "BLSE strains; 0 mmol/l of EDTA", "result": 0},
      {"measurement": "No. of BLSE strains with MIC ≦50", "setting": "BLSE strains; 0 mmol/l of EDTA", "result": 10},
      {"measurement": "No. of BLSE strains with MIC 150", "setting": "BLSE strains; 1.77 mmol/l of active EDTA", "result": 0},
      {"measurement": "No. of BLSE strains with MIC 200", "setting": "BLSE strains; 1.77 mmol/l of active EDTA", "result": 0},
      {"measurement": "No. of BLSE strains with MIC 300", "setting": "BLSE strains; 1.77 mmol/l of active EDTA", "result": 0},
      {"measurement": "No. of BLSE strains with MIC >300", "setting": "BLSE strains; 1.77 mmol/l of active EDTA", "result": 0},
      {"measurement": "No. of BLSE strains with MIC ≦50", "setting": "BLSE strains; 1.77 mmol/l of active EDTA", "result": 10},
      {"measurement": "No. of BLSE strains with MIC 150", "setting": "BLSE strains; 2.12 mmol/l of active EDTA", "result": 1},
      {"measurement": "No. of BLSE strains with MIC 200", "setting": "BLSE strains; 2.12 mmol/l of active EDTA", "result": 0},
      {"measurement": "No. of BLSE strains with MIC 300", "setting": "BLSE strains; 2.12 mmol/l of active EDTA", "result": 0},
      {"measurement": "No. of BLSE strains with MIC >300", "setting": "BLSE strains; 2.12 mmol/l of active EDTA", "result": 0},
      {"measurement": "No. of BLSE strains with MIC ≦50", "setting": "BLSE strains; 2.12 mmol/l of active EDTA", "result": 9},
      {"measurement": "No. of BLSE strains with MIC 150", "setting": "BLSE strains; 2.47 mmol/l of active EDTA", "result": 0},
      {"measurement": "No. of BLSE strains with MIC 200", "setting": "BLSE strains; 2.47 mmol/l of active EDTA", "result": 0},
      {"measurement": "No. of BLSE strains with MIC 300", "setting": "BLSE strains; 2.47 mmol/l of active EDTA", "result": 0},
      {"measurement": "No. of BLSE strains with MIC >300", "setting": "BLSE strains; 2.47 mmol/l of active EDTA", "result": 0},
      {"measurement": "No. of BLSE strains with MIC ≦50", "setting": "BLSE strains; 2.47 mmol/l of active EDTA", "result": 10},
      {"measurement": "No. of BLSE strains with MIC 150", "setting": "BLSE strains; 2.83 mmol/l of active EDTA", "result": 0},
      {"measurement": "No. of BLSE strains with MIC 200", "setting": "BLSE strains; 2.83 mmol/l of active EDTA", "result": 0},
      {"measurement": "No. of BLSE strains with MIC 300", "setting": "BLSE strains; 2.83 mmol/l of active EDTA", "result": 0},
      {"measurement": "No. of BLSE strains with MIC >300", "setting": "BLSE strains; 2.83 mmol/l of active EDTA", "result": 0},
      {"measurement": "No. of BLSE strains with MIC ≦50", "setting": "BLSE strains; 2.83 mmol/l of active EDTA", "result": 10},
      {"measurement": "No. of AmpC strains with MIC 150", "setting": "AmpC strains; 0 mmol/l of EDTA", "result": 0},
      {"measurement": "No. of AmpC strains with MIC 200", "setting": "AmpC strains; 0 mmol/l of EDTA", "result": 0},
      {"measurement": "No. of AmpC strains with MIC 300", "setting": "AmpC strains; 0 mmol/l of EDTA", "result": 0},
      {"measurement": "No. of AmpC strains with MIC >300", "setting": "AmpC strains; 0 mmol/l of EDTA", "result": 0},
      {"measurement": "No. of AmpC strains with MIC ≦50", "setting": "AmpC strains; 0 mmol/l of EDTA", "result": 10},
      {"measurement": "No. of AmpC strains with MIC 150", "setting": "AmpC strains; 1.77 mmol/l of active EDTA", "result": 1},
      {"measurement": "No. of AmpC strains with MIC 200", "setting": "AmpC strains; 1.77 mmol/l of active EDTA", "result": 0},
      {"measurement": "No. of AmpC strains with MIC 300", "setting": "AmpC strains; 1.77 mmol/l of active EDTA", "result": 0},
      {"measurement": "No. of AmpC strains with MIC >300", "setting": "AmpC strains; 1.77 mmol/l of active EDTA", "result": 0},
      {"measurement": "No. of AmpC strains with MIC ≦50", "setting": "AmpC strains; 1.77 mmol/l of active EDTA", "result": 9},
      {"measurement": "No. of AmpC strains with MIC 150", "setting": "AmpC strains; 2.12 mmol/l of active EDTA", "result": 1},
      {"measurement": "No. of AmpC strains with MIC 200", "setting": "AmpC strains; 2.12 mmol/l of active EDTA", "result": 0},
      {"measurement": "No. of AmpC strains with MIC 300", "setting": "AmpC strains; 2.12 mmol/l of active EDTA", "result": 0},
      {"measurement": "No. of AmpC strains with MIC >300", "setting": "AmpC strains; 2.12 mmol/l of active EDTA", "result": 0},
      {"measurement": "No. of AmpC strains with MIC ≦50", "setting": "AmpC strains; 2.12 mmol/l of active EDTA", "result": 9},
      {"measurement": "No. of AmpC strains with MIC 150", "setting": "AmpC strains; 2.47 mmol/l of active EDTA", "result": 0},
      {"measurement": "No. of AmpC strains with MIC 200", "setting": "AmpC strains; 2.47 mmol/l of active EDTA", "result": 0},
      {"measurement": "No. of AmpC strains with MIC 300", "setting": "AmpC strains; 2.47 mmol/l of active EDTA", "result": 0},
      {"measurement": "No. of AmpC strains with MIC >300", "setting": "AmpC strains; 2.47 mmol/l of active EDTA", "result": 0},
      {"measurement": "No. of AmpC strains with MIC ≦50", "setting": "AmpC strains; 2.47 mmol/l of active EDTA", "result": 10},
      {"measurement": "No. of AmpC strains with MIC 150", "setting": "AmpC strains; 2.83 mmol/l of active EDTA", "result": 0},
      {"measurement": "No. of AmpC strains with MIC 200", "setting": "AmpC strains; 2.83 mmol/l of active EDTA", "result": 0},
      {"measurement": "No. of AmpC strains with MIC 300", "setting": "AmpC strains; 2.83 mmol/l of active EDTA", "result": 0},
      {"measurement": "No. of AmpC strains with MIC >300", "setting": "AmpC strains; 2.83 mmol/l of active EDTA", "result": 0},
      {"measurement": "No. of AmpC strains with MIC ≦50", "setting": "AmpC strains; 2.83 mmol/l of active EDTA", "result": 10}
    ]}
  ]
}
